Organism: Rattus norvegicus
Assay: Open TG-GATES - Regimen: Single
Assay type: toxicity, organism-based, Sprague-Dawley
Set-up: regimen Single, gender Male, age 6 weeks
Conditions: in vivo, po, 75 mg/kg, route gavage, dose level High; for APTT / Bas / Eos / Fbg / Hb / Ht / Lym / MCH / MCHC / MCV / Mono / Neu / PT / Plat / RBC / Ret / WBC: tissue Blood; for KIDNEY_L / KIDNEY_R / KIDNEY_TOTAL: tissue Kidney; for LIVER: tissue Liver; for A/G / ALP / ALT / AST / BUN / CRE / Ca / Cl / DBIL / GLC / IP / K / LDH / Na / PL / RALB / TBIL / TC / TG / TP / gamma-GTP: tissue Plasma

NC1=NC(=O)C(c2ccccc2)O1 (configuration not stated) [PEMOLINE] was tested, and the TERMINAL_BW (3 h) was 208.2 g, the APTT (3 h) was 16.9 s and the Bas (3 h) was 0%. The Eos (3 h) was 0.8%, the Fbg (3 h) was 306.8 mg/dL and the Hb (3 h) was 13.3 g/dL. The Ht (3 h) was 39.3%, the Lym (3 h) was 74.8% and the MCH (3 h) was 21.9 pg. The MCHC (3 h) was 33.9%, the MCV (3 h) was 64.8 fL and the Mono (3 h) was 2.6%. It also gave a Neu (3 h) of 20.8%, a PT (3 h) of 13.3 s and a Plat (3 h) of 129.3 x10_4/uL. The RBC (3 h) was 606.8 x10_4/ul, the Ret (3 h) was 9.4% and the WBC (3 h) was 99.2 x10_2/uL. It also gave a KIDNEY_L (3 h) of 0.9 g, a KIDNEY_R (3 h) of 0.9 g and a KIDNEY_TOTAL (3 h) of 1.7 g. For the same compound, the LIVER (3 h) was 8.9 g, the A/G (3 h) was 1 and the ALP (3 h) was 1509.8 IU/L. The ALT (3 h) was 46.4 IU/L, the AST (3 h) was 87.6 IU/L and the BUN (3 h) was 7.8 mg/dL. It also gave a CRE (3 h) of 0.2 mg/dL, a Ca (3 h) of 10.4 mg/dL and a Cl (3 h) of 108.2 meq/L. The DBIL (3 h) was 0.012 mg/dL, the GLC (3 h) was 188.6 mg/dL and the IP (3 h) was 8.2 mg/dL. For the same compound, the K (3 h) was 3.7 meq/L, the LDH (3 h) was 74.6 IU/L and the Na (3 h) was 141.6 meq/L. It also gave a PL (3 h) of 132.8 mg/dL, an RALB (3 h) of 2.8 g/dL and a TBIL (3 h) of 0.042 mg/dL. It also gave a TC (3 h) of 80 mg/dL, a TG (3 h) of 36.8 mg/dL and a TP (3 h) of 5.5 g/dL. For the same compound, the gamma-GTP (3 h) was 1.8 IU/L, the TERMINAL_BW (6 h) was 208.1 g and the APTT (6 h) was 17.1 s. It also gave a Bas (6 h) of 0%, an Eos (6 h) of 1% and a Fbg (6 h) of 280.8 mg/dL. For the same compound, the Hb (6 h) was 13.6 g/dL, the Ht (6 h) was 40.2% and the Lym (6 h) was 75.2%. It also gave an MCH (6 h) of 22 pg, an MCHC (6 h) of 33.9% and an MCV (6 h) of 64.9 fL. The Mono (6 h) was 3%, the Neu (6 h) was 20% and the PT (6 h) was 13.6 s. The Plat (6 h) was 118.6 x10_4/uL, the RBC (6 h) was 620.2 x10_4/ul and the Ret (6 h) was 9.3%. The WBC (6 h) was 89.6 x10_2/uL, the KIDNEY_L (6 h) was 0.9 g and the KIDNEY_R (6 h) was 0.9 g. It also gave a KIDNEY_TOTAL (6 h) of 1.8 g, an LIVER (6 h) of 7.6 g and an A/G (6 h) of 1. For the same compound, the ALP (6 h) was 1507.8 IU/L, the ALT (6 h) was 40.6 IU/L and the AST (6 h) was 104.8 IU/L. The BUN (6 h) was 9 mg/dL, the CRE (6 h) was 0.2 mg/dL and the Ca (6 h) was 10.3 mg/dL. For the same compound, the Cl (6 h) was 108.4 meq/L, the DBIL (6 h) was 0.01 mg/dL and the GLC (6 h) was 168.8 mg/dL. The IP (6 h) was 9.3 mg/dL, the K (6 h) was 3.7 meq/L and the LDH (6 h) was 110.8 IU/L. For the same compound, the Na (6 h) was 140.8 meq/L, the PL (6 h) was 119 mg/dL and the RALB (6 h) was 2.7 g/dL. The TBIL (6 h) was 0.05 mg/dL, the TC (6 h) was 77.4 mg/dL and the TG (6 h) was 14 mg/dL. For the same compound, the TP (6 h) was 5.4 g/dL, the gamma-GTP (6 h) was 1 IU/L and the TERMINAL_BW (9 h) was 209.6 g. The APTT (9 h) was 17.2 s, the Bas (9 h) was 0% and the Eos (9 h) was 0.6%. For the same compound, the Fbg (9 h) was 330.2 mg/dL, the Hb (9 h) was 13.7 g/dL and the Ht (9 h) was 40.1%. The Lym (9 h) was 71.6%, the MCH (9 h) was 22.2 pg and the MCHC (9 h) was 34.2%. The MCV (9 h) was 65 fL, the Mono (9 h) was 2.2% and the Neu (9 h) was 25%. The PT (9 h) was 13.1 s, the Plat (9 h) was 113 x10_4/uL and the RBC (9 h) was 617.8 x10_4/ul. The Ret (9 h) was 9.2%, the WBC (9 h) was 80.9 x10_2/uL and the KIDNEY_L (9 h) was 0.9 g. For the same compound, the KIDNEY_R (9 h) was 0.9 g, the KIDNEY_TOTAL (9 h) was 1.8 g and the LIVER (9 h) was 7.3 g. The A/G (9 h) was 1, the ALP (9 h) was 1405.6 IU/L and the ALT (9 h) was 34.4 IU/L. For the same compound, the AST (9 h) was 89 IU/L, the BUN (9 h) was 9 mg/dL and the CRE (9 h) was 0.2 mg/dL. The Ca (9 h) was 10.3 mg/dL, the Cl (9 h) was 107.8 meq/L and the DBIL (9 h) was 0.01 mg/dL. It also gave a GLC (9 h) of 190.4 mg/dL, an IP (9 h) of 10.4 mg/dL and a K (9 h) of 3.5 meq/L. The LDH (9 h) was 82 IU/L, the Na (9 h) was 141.2 meq/L and the PL (9 h) was 122.2 mg/dL. The RALB (9 h) was 2.9 g/dL, the TBIL (9 h) was 0.044 mg/dL and the TC (9 h) was 75.6 mg/dL. For the same compound, the TG (9 h) was 9.4 mg/dL, the TP (9 h) was 5.7 g/dL and the gamma-GTP (9 h) was 1.2 IU/L. It also gave a TERMINAL_BW (24 h) of 200.9 g, an APTT (24 h) of 15.7 s and a Bas (24 h) of 0%. For the same compound, the Eos (24 h) was 1%, the Fbg (24 h) was 324.8 mg/dL and the Hb (24 h) was 13.3 g/dL. For the same compound, the Ht (24 h) was 38.1%, the Lym (24 h) was 78.8% and the MCH (24 h) was 21.9 pg. For the same compound, the MCHC (24 h) was 34.8%, the MCV (24 h) was 62.9 fL and the Mono (24 h) was 2.2%. For the same compound, the Neu (24 h) was 17.6%, the PT (24 h) was 13.1 s and the Plat (24 h) was 112.1 x10_4/uL. It also gave an RBC (24 h) of 606.6 x10_4/ul, a Ret (24 h) of 8.5% and a WBC (24 h) of 84.2 x10_2/uL. The KIDNEY_L (24 h) was 0.9 g, the KIDNEY_R (24 h) was 0.9 g and the KIDNEY_TOTAL (24 h) was 1.9 g. It also gave an LIVER (24 h) of 8.6 g, an A/G (24 h) of 1 and an ALP (24 h) of 1471 IU/L. For the same compound, the ALT (24 h) was 40.8 IU/L, the AST (24 h) was 92.6 IU/L and the BUN (24 h) was 14 mg/dL. For the same compound, the CRE (24 h) was 0.2 mg/dL, the Ca (24 h) was 10.6 mg/dL and the Cl (24 h) was 104.8 meq/L. For the same compound, the DBIL (24 h) was 0.014 mg/dL, the GLC (24 h) was 177.6 mg/dL and the IP (24 h) was 8.6 mg/dL. The K (24 h) was 4.1 meq/L, the LDH (24 h) was 66.2 IU/L and the Na (24 h) was 141.4 meq/L. It also gave a PL (24 h) of 127.6 mg/dL, an RALB (24 h) of 2.7 g/dL and a TBIL (24 h) of 0.038 mg/dL. The TC (24 h) was 80.4 mg/dL, the TG (24 h) was 38.2 mg/dL and the TP (24 h) was 5.4 g/dL. The gamma-GTP (24 h) was 1 IU/L.
